Consider two molecules from ChEMBL document CHEMBL1157712, “Hit to lead account of the discovery of bisbenzamide and related ureidobenzamide inhibitors of Rho kinase” (J Med Chem, 2010).

In brackets after ≈: the same amount, converted by molar mass.

In data set [1] the target is Rho-associated protein kinase 2 (Homo sapiens, UniProt O75116).
Description: Inhibition of human ROCK2 by homogenous luciferase assay
The target of data set [2] is Mitogen-activated protein kinase kinase kinase 11 (Homo sapiens, UniProt Q16584). Nature of the data set: Inhibition of MAP3K11.
Data set [3] concerns the target Ribosomal protein S6 kinase beta-1 (Homo sapiens) (UniProt P23443). The settings on record: 3 to 6 uM.
Description: Inhibition of S6K1 at 3 to 6 uM relative to control
For data set [4], the target named is Mitogen-activated protein kinase 1 (Homo sapiens) (UniProt P28482). The settings on record: 3 to 6 uM.
Description: Inhibition of MAPK2 at 3 to 6 uM relative to control
Data set [5] addresses Serine/threonine-protein kinase D1 (Homo sapiens) (UniProt Q15139). The settings on record: 3 to 6 uM.
Description: Inhibition of PKD1 at 3 to 6 uM relative to control
Data set [6] addresses Voltage-gated inwardly rectifying potassium channel KCNH2 (Homo sapiens, UniProt Q12809). Nature of the data set: Inhibition of human ERG potassium channel up to 70 uM.
Data set [7] deals with Leucine-rich repeat serine/threonine-protein kinase 2 (Homo sapiens) (UniProt Q5S007). The settings on record: 3 to 6 uM.
Description: Inhibition of LRRK2 at 3 to 6 uM relative to control
For data set [8], the target named is Receptor-interacting serine/threonine-protein kinase 4 (Homo sapiens) (UniProt P57078). The settings on record: 3 to 6 uM.
Description: Inhibition of ANKRD3 at 3 to 6 uM relative to control
For data set [9], the target named is Dual specificity tyrosine-phosphorylation-regulated kinase 1A (Homo sapiens) (UniProt Q13627). The settings on record: 3 to 6 uM.
Description: Inhibition of DYRK1A at 3 to 6 uM relative to control
The target in data set [10] is Tyrosine-protein kinase Lyn (Homo sapiens, UniProt P07948). Nature of the data set: Inhibition of LYN.
The target in another data set is Cytochrome P450 2C19 (Homo sapiens, UniProt P33261). Nature of the data set: Inhibition of human CYP2C19 by fluorescence assay. In kind it is ADME.
Data set [11] concerns the target Serine/threonine-protein kinase Chk2 (Homo sapiens) (UniProt O96017). Particulars: 3 to 6 uM; call rule not given here.
For data set [12], the target named is Glycogen synthase kinase-3 beta (Homo sapiens) (UniProt P49841). Particulars: 3 to 6 uM.
Description: Inhibition of GSK3-beta at 3 to 6 uM relative to control
The species named for the next data set is Rattus norvegicus. Nature of the data set: Induction of relaxation activity of phenylephrine-induced Sprague-Dawley rat aortic ring contraction. In kind it is functional. The settings on record: Aorta.
For another data set, the target named is T1, Cytochrome P450 1A2 (Homo sapiens, UniProt P05177).
T1 sequence (P05177 whole entry): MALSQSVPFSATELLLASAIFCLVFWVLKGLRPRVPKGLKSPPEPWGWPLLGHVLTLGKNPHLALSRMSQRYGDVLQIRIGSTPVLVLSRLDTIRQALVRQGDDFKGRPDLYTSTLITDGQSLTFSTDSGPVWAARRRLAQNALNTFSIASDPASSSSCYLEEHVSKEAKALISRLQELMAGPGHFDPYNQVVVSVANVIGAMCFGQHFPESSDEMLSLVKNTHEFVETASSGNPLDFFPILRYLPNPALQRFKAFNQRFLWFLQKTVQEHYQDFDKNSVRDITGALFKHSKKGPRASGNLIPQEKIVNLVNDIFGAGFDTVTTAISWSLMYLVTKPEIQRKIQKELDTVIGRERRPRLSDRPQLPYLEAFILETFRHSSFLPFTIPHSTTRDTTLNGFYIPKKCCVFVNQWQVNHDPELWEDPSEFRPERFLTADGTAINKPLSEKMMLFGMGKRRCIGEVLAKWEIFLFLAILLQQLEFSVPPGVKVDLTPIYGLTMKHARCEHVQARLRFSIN
Nature of the data set: Inhibition of human CYP1A2 by fluorescence assay. In kind it is ADME.

Data set [13] addresses Dual specificity protein kinase CLK1 (Homo sapiens) (UniProt P49759). Particulars: 3 to 6 uM.
Description: Inhibition of CLK1 at 3 to 6 uM relative to control
The target in data set [14] is Myotonin-protein kinase (Homo sapiens) (UniProt Q09013). The settings on record: 3 to 6 uM.
Sequence of Myotonin-protein kinase (Homo sapiens) (Q09013 whole entry): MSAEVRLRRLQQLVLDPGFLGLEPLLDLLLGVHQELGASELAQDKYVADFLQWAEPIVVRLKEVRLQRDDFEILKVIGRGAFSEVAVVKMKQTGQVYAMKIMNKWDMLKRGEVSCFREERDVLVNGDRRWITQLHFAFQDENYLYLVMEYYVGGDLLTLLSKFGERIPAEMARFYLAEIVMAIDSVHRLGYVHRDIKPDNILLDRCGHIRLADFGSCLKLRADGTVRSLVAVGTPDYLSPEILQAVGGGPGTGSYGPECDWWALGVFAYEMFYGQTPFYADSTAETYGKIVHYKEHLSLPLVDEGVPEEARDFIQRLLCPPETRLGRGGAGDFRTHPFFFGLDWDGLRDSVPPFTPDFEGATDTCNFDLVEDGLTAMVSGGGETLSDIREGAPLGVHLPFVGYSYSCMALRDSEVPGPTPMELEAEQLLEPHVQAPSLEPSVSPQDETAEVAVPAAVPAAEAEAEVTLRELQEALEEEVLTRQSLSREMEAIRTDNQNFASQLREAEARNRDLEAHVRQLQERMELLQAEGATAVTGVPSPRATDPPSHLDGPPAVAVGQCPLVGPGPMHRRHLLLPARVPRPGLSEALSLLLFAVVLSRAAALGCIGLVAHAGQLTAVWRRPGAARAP
Description: Inhibition of DMPK at 3 to 6 uM relative to control
Data set [15] can be described thus: Solubility at pH 7.4. It counts as physicochemical. The settings on record: buffer.
Data set [16] has as its target Serine/threonine-protein kinase Nek6 (Homo sapiens) (UniProt Q9HC98). The settings on record: 3 to 6 uM.
Description: Inhibition of NEK6 at 3 to 6 uM relative to control
For data set [17], the target named is cGMP-dependent protein kinase 1 (Homo sapiens, UniProt Q13976). Nature of the data set: Inhibition of PRKG1.
Sequence of cGMP-dependent protein kinase 1 (Q13976 whole entry): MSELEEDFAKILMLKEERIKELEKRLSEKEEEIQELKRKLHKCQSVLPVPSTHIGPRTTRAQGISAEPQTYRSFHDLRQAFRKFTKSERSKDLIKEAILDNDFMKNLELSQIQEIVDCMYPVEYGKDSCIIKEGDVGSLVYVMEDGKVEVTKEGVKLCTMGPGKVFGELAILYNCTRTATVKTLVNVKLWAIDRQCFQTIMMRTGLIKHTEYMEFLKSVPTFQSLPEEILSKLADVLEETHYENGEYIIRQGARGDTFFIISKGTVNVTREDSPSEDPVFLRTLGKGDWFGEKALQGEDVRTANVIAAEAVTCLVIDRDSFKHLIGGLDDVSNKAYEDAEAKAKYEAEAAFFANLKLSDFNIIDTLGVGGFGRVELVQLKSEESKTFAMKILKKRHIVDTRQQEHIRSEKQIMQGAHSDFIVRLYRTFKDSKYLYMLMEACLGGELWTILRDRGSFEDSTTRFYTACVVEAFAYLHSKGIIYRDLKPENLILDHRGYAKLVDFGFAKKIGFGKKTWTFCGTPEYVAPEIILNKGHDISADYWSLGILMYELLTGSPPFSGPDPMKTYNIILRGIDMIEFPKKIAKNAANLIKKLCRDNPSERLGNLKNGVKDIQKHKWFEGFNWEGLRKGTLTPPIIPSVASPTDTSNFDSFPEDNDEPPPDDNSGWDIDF
In data set [18] the target is Serine/threonine-protein kinase pim-2 (Homo sapiens, UniProt Q9P1W9). Nature of the data set: Inhibition of PIM2.
The target in a further data set is Cytochrome P450 3A4 (Homo sapiens, UniProt P08684). Nature of the data set: Inhibition of human CYP3A4 by LCMS/MS assay. In kind it is ADME.
Data set [19] concerns the target Tyrosine-protein kinase ITK/TSK (Homo sapiens, UniProt Q08881). Nature of the data set: Inhibition of ITK.
Data set [20] addresses Mitogen-activated protein kinase 15 (Homo sapiens) (UniProt Q8TD08). Particulars: 3 to 6 uM.
Description: Inhibition of ERK8 at 3 to 6 uM relative to control
For data set [21], the target named is Serine/threonine-protein kinase Sgk1 (Homo sapiens) (UniProt O00141). Nature of the data set: Inhibition of SGK at 3 uM relative to control; values are per cent of control.
The target in data set [22] is Proto-oncogene tyrosine-protein kinase Src (Homo sapiens) (UniProt P12931). Nature of the data set: Inhibition of SRC at 3 uM relative to control; values are per cent of control.
The target of data set [23] is Serine/threonine-protein kinase Chk1 (Homo sapiens) (UniProt O14757). Nature of the data set: Inhibition of CHK1 at 3 uM relative to control; values are per cent of control.
Sequence of Serine/threonine-protein kinase Chk1 (Homo sapiens) (O14757 whole entry): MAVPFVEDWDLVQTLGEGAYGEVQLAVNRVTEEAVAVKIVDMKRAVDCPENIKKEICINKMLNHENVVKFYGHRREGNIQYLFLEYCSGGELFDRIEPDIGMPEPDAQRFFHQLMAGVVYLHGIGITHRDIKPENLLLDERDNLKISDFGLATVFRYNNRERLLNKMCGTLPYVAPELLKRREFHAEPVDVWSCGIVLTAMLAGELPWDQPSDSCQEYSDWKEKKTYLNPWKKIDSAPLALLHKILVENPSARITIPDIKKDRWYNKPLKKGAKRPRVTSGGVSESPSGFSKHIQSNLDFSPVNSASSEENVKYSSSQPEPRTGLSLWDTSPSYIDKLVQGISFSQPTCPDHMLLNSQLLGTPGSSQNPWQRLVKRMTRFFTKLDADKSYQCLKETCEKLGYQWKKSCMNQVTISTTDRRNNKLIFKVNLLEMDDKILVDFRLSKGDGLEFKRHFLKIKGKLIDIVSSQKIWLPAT
The target in data set [24] is Eukaryotic elongation factor 2 kinase (Homo sapiens) (UniProt O00418). Nature of the data set: Inhibition of EF2K at 3 uM relative to control; values are per cent of control.
A short description of data set [25]: Inhibition of PKA at 3 uM relative to control; values are per cent of control.
A short description of data set [26]: Inhibition of SAPK2a at 3 uM relative to control; values are per cent of control.
In data set [27] the target is Serine/threonine-protein kinase D1 (Homo sapiens) (UniProt Q15139). Nature of the data set: Inhibition of PKD1 at 3 uM relative to control; values are per cent of control.
Sequence of Serine/threonine-protein kinase D1 (Homo sapiens) (Q15139 whole entry): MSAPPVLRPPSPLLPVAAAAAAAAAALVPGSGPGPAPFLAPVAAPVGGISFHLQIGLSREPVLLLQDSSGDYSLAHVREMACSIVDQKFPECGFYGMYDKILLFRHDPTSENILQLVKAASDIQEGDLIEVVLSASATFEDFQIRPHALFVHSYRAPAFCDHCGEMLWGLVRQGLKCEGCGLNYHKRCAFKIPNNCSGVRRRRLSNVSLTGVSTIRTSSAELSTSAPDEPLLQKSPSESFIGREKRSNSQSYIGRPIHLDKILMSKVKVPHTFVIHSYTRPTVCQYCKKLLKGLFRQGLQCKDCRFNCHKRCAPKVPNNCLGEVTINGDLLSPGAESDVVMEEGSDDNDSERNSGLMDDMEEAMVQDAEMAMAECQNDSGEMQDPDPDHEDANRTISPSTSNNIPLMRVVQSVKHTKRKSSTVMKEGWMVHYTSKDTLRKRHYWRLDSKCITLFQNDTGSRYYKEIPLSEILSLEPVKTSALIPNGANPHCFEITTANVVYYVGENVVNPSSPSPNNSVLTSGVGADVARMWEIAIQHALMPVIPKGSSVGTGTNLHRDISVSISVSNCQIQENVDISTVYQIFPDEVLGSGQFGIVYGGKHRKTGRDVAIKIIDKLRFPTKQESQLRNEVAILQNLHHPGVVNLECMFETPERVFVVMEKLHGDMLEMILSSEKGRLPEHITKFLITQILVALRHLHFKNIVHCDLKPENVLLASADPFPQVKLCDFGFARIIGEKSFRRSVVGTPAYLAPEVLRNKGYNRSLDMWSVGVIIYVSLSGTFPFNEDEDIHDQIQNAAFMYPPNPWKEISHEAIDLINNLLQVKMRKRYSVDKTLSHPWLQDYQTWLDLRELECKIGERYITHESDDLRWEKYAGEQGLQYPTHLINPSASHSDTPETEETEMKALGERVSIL
The target of data set [28] is Mitogen-activated protein kinase 10 (Homo sapiens) (UniProt P53779). Nature of the data set: Inhibition of JNK3a1 at 3 uM relative to control; values are per cent of control.
Sequence of Mitogen-activated protein kinase 10 (Homo sapiens) (P53779 whole entry): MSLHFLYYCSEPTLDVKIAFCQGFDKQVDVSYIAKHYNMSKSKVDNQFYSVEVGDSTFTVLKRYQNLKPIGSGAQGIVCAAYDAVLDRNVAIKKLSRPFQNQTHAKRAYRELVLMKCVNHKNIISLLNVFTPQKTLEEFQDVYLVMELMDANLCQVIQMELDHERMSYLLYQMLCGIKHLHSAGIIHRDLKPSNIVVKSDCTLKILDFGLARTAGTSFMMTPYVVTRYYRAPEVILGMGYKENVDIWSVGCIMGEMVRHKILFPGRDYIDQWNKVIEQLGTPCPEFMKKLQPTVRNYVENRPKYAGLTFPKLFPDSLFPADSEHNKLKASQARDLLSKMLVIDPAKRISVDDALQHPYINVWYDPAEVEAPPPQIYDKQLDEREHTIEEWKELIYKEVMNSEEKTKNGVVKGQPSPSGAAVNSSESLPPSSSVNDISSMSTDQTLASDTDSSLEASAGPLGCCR
Data set [29] has as its target Myosin light chain kinase, smooth muscle (Homo sapiens) (UniProt Q15746). Nature of the data set: Inhibition of SMMLCK at 3 uM relative to control; values are per cent of control.
Data set [30] has as its target Ribosomal protein S6 kinase beta-1 (Homo sapiens) (UniProt P23443). Nature of the data set: Inhibition of S6K1 at 3 uM relative to control; values are per cent of control.
Data set [31] has as its target SRSF protein kinase 1 (Homo sapiens) (UniProt Q96SB4). Nature of the data set: Inhibition of SRPK1 at 3 uM relative to control; values are per cent of control.

Sequence of Rho-associated protein kinase 2 (O75116 whole entry): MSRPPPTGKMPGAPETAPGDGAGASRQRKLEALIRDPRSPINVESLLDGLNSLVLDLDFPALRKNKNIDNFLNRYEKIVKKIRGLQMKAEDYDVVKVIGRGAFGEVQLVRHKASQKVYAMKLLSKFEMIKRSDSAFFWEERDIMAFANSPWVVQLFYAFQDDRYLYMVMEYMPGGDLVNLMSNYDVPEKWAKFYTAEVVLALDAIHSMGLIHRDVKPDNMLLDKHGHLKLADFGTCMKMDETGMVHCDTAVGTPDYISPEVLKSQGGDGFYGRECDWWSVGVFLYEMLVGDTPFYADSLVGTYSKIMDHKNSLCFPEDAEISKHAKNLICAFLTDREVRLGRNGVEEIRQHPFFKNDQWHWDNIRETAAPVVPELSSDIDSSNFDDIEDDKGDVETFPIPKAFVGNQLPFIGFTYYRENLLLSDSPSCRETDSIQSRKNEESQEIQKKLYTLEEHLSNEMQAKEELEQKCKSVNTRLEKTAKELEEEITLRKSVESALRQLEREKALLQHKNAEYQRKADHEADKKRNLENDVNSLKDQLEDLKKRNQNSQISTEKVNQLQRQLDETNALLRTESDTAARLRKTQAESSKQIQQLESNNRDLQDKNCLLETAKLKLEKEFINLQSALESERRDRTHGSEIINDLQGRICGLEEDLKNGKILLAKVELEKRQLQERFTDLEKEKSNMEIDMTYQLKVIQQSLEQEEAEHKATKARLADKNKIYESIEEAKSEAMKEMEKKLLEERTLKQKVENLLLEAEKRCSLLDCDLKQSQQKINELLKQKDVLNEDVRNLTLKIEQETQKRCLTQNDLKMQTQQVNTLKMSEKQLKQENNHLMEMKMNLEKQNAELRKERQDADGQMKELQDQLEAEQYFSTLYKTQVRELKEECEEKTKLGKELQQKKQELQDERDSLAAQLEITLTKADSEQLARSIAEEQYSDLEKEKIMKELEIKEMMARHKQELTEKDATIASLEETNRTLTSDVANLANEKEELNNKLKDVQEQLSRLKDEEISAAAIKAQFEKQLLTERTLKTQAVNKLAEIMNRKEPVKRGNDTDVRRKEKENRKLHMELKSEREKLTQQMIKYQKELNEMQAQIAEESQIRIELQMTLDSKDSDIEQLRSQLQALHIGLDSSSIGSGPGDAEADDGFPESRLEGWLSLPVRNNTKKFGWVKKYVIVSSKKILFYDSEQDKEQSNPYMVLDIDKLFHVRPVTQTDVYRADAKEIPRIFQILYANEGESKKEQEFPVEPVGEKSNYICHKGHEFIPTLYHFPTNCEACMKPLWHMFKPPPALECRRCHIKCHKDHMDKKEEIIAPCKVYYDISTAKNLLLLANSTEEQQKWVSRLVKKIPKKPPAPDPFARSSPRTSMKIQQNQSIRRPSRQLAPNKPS
Sequence of Ribosomal protein S6 kinase beta-1 (Homo sapiens) (P23443 whole entry, looked up): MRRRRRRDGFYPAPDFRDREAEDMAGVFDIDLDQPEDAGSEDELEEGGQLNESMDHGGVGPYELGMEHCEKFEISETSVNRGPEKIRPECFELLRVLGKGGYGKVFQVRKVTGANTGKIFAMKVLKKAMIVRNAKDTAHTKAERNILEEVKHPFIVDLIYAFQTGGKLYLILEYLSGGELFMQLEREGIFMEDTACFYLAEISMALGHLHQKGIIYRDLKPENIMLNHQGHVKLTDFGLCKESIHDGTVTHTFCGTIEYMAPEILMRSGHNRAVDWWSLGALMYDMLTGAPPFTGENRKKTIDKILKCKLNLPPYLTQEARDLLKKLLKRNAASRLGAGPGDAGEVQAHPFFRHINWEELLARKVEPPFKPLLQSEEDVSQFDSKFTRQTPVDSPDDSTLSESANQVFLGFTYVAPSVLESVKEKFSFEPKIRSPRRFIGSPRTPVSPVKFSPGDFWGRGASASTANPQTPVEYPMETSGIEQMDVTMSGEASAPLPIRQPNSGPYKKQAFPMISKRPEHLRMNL

For orientation: IC50 means the concentration needed to halve the response being measured. A low value points to greater potency. In general, solubility refers to the dissolved amount per volume that the medium holds. A higher solubility goes with much dissolved substance. For the molecule `COc1ccc(C(=O)NCc2cccc(C(=O)Nc3ccc4c(c3)CNCC4)c2)cc1OC`, the IC50 in data set [1] was 0.033 µM; in [2] it was above 10 µM; in data set [10] it was above 10 µM; against Cytochrome P450 2C19 it was above 30 µM; in the data set filed under Rattus norvegicus it was 6.4 µM; against Cytochrome P450 1A2, above 30 µM. Also, the half-inhibitory concentration (IC50) is 5.6 µM in [17], above 10 µM in [18], above 30 µM against Cytochrome P450 3A4 and above 10 µM in data set [19]. In addition, the residual activity in [3], in [4], in [5], in [7], in data set [8] and in data set [9] was above 50% in each case. Moreover, the residual activity in [11], in [12], in [13], in [14], in [16] and in [20] was above 50% in each case. Also, in data set [6], the “inhibition (INH)” value was “Not Active”. Moreover, in [15], the solubility was 49 µg/mL (≈ 110 µM).

Consider `NC(=O)c1ccc(NC(=O)NCc2cccc(C(=O)Nc3ccc4c(c3)CNCC4)c2)cc1`, for which the residual activity in [21], in data set [22], in [23], in data set [24], in [25] and in data set [26] was above 50% throughout. Besides, the residual activity in data set [27], in data set [28], in data set [29], in data set [30] and in data set [31] was above 50% in each case. The 50% inhibitory concentration (IC50) is 0.004 µM in data set [1] and 3 µM in [17].
